# According to patent US9428519B2, “Acylated derivative of homoharringtonine, preparation method therefor, and application thereof” (HANGZHOU BENSHENG PHARMACEUTICAL CO., LTD., priority 2011, dated 2016):
# System: Kasumi-1 transplanted tumor of leukemia
# Assay: Inhibition of transplanted tumor of leukemia in NOD/SCID mice
# Assay type: in vivo
# Settings: for Mass of tumor / Tumor Inhibition rate (%): Kasumi-1 in NOD/SCID mice, three times a day, 10 days, Day 31
# Description: Leukemia cell lines: Kasumi-1 (acute myeloid leukemia M2 type, AML-M2)
# Animal: NOD/SCID mice (multiple immunodeficiency mice), 8 weeks, female, purchased from Shanghai Laboratory Animal Center of Chinese Academy of Sciences, China.
# BS-HH-002, wherein BS-HH-002-0.1 indicates a dosage of 0.1 mg/kg each time, and BS-HH-002-0.3 indicates a dosage of 0.3 mg/kg each time.
# Under sterile conditions, the above tumor cells in the logarithmic growth phase are collected and injected in an amount of 5×10^7/0.2 ml/mice (cell viability>95%) by subcutaneous injection into the right subaxillary of NOD/SCID mice, thus establishing an NOD/SCID mice model bearing transplanted tumor of leukemia. The mice are administered on the third day after the inoculation, wherein the experimental groups are intragastrically administered in an experimentally designed amount and the negative control group is intragastrically administered with sterile water. Each mouse is intragastrically administered three times a day in 0.4 ml each time, at 8:00, 14:00 and 20:00 with 6-hour intervals, and is successively administered for 10 days. The day before administration is Day 0 and the weight and tumor size are determined approximately every 5 days to produce a dynamic plot on weight and tumor growth. On Day 31, the mice are dissected and the tumors are taken out and weighed. The tumor inhibition rate (%) after the application of medicament is determined based on the tumor inhibition rate of the control group being zero.
# The values determined are presented as mean±standard error (M±SD). The experimental data for each group are analyzed by the One-way ANOVA method of SPSS 18.0 Statistical Software, and p<0.05 is deemed as having statistically significant difference.
smiles,measurement,setting,value
"COC(=O)C[C@](O)(CCCC(C)(C)OC(C)=O)C(=O)O[C@@H]1C(OC)=C[C@]23CCCN2CCc2cc4c(cc2[C@H]13)OCO4 [BS-HH-002, 6-acetylhomoharringtonine]",Mass of tumor,0.1 mg/kg/time intragastric,1.67 ± 0.36 g
same,Tumor Inhibition rate (%),0.1 mg/kg/time intragastric,43.31%
same,Mass of tumor,0.3 mg/kg/time intragastric,1.60 ± 0.75 g
same,Tumor Inhibition rate (%),0.3 mg/kg/time intragastric,45.74%
same,tumor inhibition effect on transplanted tumor of leukemia,"NOD/SCID mice, FIG. 5 tumor growth curve",remarkable tumor inhibition effect
same,effect on weight of the transplanted tumor of leukemia,"NOD/SCID mice, FIG. 6",substantially reduced
same,inhibition rate of transplanted tumor of leukemia,"NOD/SCID mice, dosage of both 0.1 and 0.3 mg/kg",over 40%
